“Also recorded” adds a separate entry of the source.

The record followed here is patent US11446262B2, “Neuroquiescence—a treatment for neurodevelopmental and neurodegenerative bioelectrical dysregulation and demyelination” (priority 2018, dated 2022).

For data set [1], the system named is children with Epilepsy (seizures, neuronal agitation noise on EEG). Kind of data set: Neuroquiescence protocol (Dobutamine preparation plus sustained sedation) in children with Epilepsy, hospital case series. The class given is in vivo, human.
The subject of data set [2] is patients with seizures (Epilepsy). Kind of data set: Use of Dobutamine in seizure patients before the sedation session (adults). The class given is in vivo, human. The text has this:
We alternate weeks between the Neurokinin-2 (Nk2) versus the Dobutamine Infusion (Dob). We are limited to four doses of Neurokinin 2, so we distribute them among the Dobutamine doses to maximize the Neurokinin-2 counterinflammation. We use no Dobutamine on the day before or after the day of Neurokinin-2.
The traditional “intractable” Epilepsy concept is overcome by use of Dobutamine, which is about cerebrovascular bloodflow, not about suppression of seizures. Dobutamine outperforms antiseizure medications because it addresses the true root-cause of seizures.

The subject of data set [3] is seizure and Grand mal seizure. Kind of data set: Midazolam IV for termination of seizure. The class given is in vivo, human. The conditions noted are these: IV 0.2 mg/kg (Maximum 10 mg).
In data set [4] the test system is patients (allergic reaction). Kind of data set: Anesthesia allergy test before the Neuroquiescence session.
Data set [5] can be described thus: Absorption of Midazolam administered by IV.
Data set [6] concerns children with seizures and agitated bioelectrical brain activity. The arrangement: species or system human. The conditions noted are these: in vivo.

With `CC(CCc1ccc(O)cc1)NCCc1ccc(O)c(O)c1` (stereo not drawn) [Dobutamine], in data set [1] (after week-six Neuroquiescence sedation session, Dobutamine continued), the “children having no neuronal agitation noise, never returns” value is “over 95%”. For the same molecule, the “children with no seizures but neuronal agitation noise still present” value in data set [1] (weeks two through five, Pre-Neuroquiescence preparation on Dobutamine, no antiseizure medication) is “about 80%”. In addition, the “seizure status of adults previously taking multiple antiseizure medications” value in data set [2] (intravenous Dobutamine, before sedation session) was “become seizure free”. In addition, in data set [2] (neuronal agitation still present during weeks of microvascular preparation), the “performance versus antiseizure medication” value was “consistently outperformed their antiseizure medication”. Also, the time to seizure-free entry in data set [2] (one adult with unmanageable morning seizures for fifteen years) is given as “seizure-free in less than one month”. The “neuronal agitation on EEG” value in data set [2] (same adult, a few more months, all antiseizure medications removed) is recorded as “no neuronal agitation measurable at EEG sensitivities”.

Take `Cc1ncc2n1-c1ccc(Cl)cc1C(c1ccccc1F)=NC2` [Midazolam]: the “termination of frequency of seizure and Grand mal seizure” value in data set [3] was “effective”. In addition, in data set [4], the “patients allergic in allergy test” value was “approximately 5%”. In data set [5], the absorption result is “well absorbed”. For the same molecule, in data set [6], the “EEG monitoring and Brainscans” value is “became normal”; the “symptoms of seizures and agitated bioelectrical brain activity” value is on record as “resolved”; the “symptoms of seizures and bioelectrical brain activity after Neuroquiescence” value is reported as “partial improvement; also recorded: resolved”.
